Like-named read-outs stand apart in the source and are kept apart here.
How the values were obtained:
UNC-49B homomer [1] = target: T1, UNC-49B homomer (Caenorhabditis elegans, UniProt G5ECD3); assay type: cell-based, C. elegans
Experimental: (§1) Electrophysiology: Plasmids containing wild-type and mutagenized GABAA receptor subunits were linearized and transcribed in vitro using T3 RNA polymerase (mMessage mMachine T3 kit, Ambion, Austin Tex.). UNC-49B mRNA was injected into Xenopus laevis oocytes at 0.5 μg/μl either alone, or in a mixture with 0.5 μg/μl UNC-49C. […] The injection volume ranged between 27.6 nl to 50.6 nl. […] Cells were voltage clamped at −60 mV. All recordings were performed at room temperature.

UNC-49B-PS7 = assay type: cell-based, C. elegans; details: UNC-49B-PS7 versus UNC-49B/C heteromer; at EC50 GABA
Experimental: as §1

Y chimera = Y chimera (Caenorhabditis elegans, UniProt G5ECD3, I265S/I267V/I270L/N259Q/N305R/T269V/V261F/V273I); assay type: cell-based, C. elegans; details: Y chimera compared with wild-type UNC-49B and QF-R subunit; at EC50 GABA
Experimental: as §1

UNC-49B/C heteromer [2] = target: T2, UNC-49B/C heteromer (Caenorhabditis elegans, UniProt G5ECD3+G5EE10); assay type: cell-based; details: UNC-49B/C heteromers
Experimental: as §1

QF-R = QF-R (Caenorhabditis elegans, UniProt G5ECD3, N259Q/N305R/V261F); assay type: cell-based, C. elegans; details: QF-R subunit compared with wild-type UNC-49B and Y chimera; at EC50 GABA
Experimental: as §1
The conserved residues were tested in the UNC-49C M1 domain in a similar way. […] To test the importance of these conserved residues, they were substituted into an UNC-49B subunit with the linker mutation N305R to create the ‘QF-R’ subunit (FIG. 3c).

[3] = target: T3, UNC-49B/C heteromer (GABA receptor) (Caenorhabditis elegans, UniProt G5ECD3+G5EE10); assay: Picrotoxin inhibition of GABA-evoked currents, UNC-49B/C heteromer (FIG. 14A; two-electrode voltage clamp, Xenopus oocytes); assay type: cell-based; details: co-application of GABA and picrotoxin
T3 construct: two-electrode voltage clamp
Experimental: (§2) Like their mammalian homologs, UNC-49 subunits contain a large extracellular amino terminal region, and four transmembrane domains labeled M1-M4.
as §1

[4] = target: T4, UNC-49B homomer (GABA receptor) (Caenorhabditis elegans, UniProt G5ECD3); assay: Picrotoxin inhibition of GABA-evoked currents, UNC-49B homomer (FIG. 14A; two-electrode voltage clamp, Xenopus oocytes); assay type: cell-based; details: co-application of GABA and picrotoxin
T4 construct: homopentamer; two-electrode voltage clamp
Experimental: as §2, §1

[5] = system: mammalian GABAA receptor with α1 subunit XY segment replaced with UNC-49B XY sequence; assay: Neurosteroid positive modulation, subunits expressed in Xenopus oocytes; assay type: cell-based; details: altered receptor compared to the wild-type receptor
Experimental: It has been shown that one variant of the XY segment conferred high PS sensitivity (the UNC-49C sequence) (Example 1), while another variant of the XY segment conferred low PS sensitivity (the UNC-49B sequence). Subunits of mammalian GABAA receptors also contain an XY segment. It was tested whether neurosteroid sensitivity of mammalian receptors similarly depended on their XY segments. The mammalian XY segment (within the α1 subunit) was replaced with the low-sensitivity UNC-49B XY sequence variant. […] Both positive and negative modulation of GABAA receptors are therapeutically beneficial.

B-β3 chimera = assay: Pregnanolone response of B-β3 chimera; assay type: cell-based
Excerpt: A) Structure of the B-β3 chimera. B) The B-β3 chimera is enhanced by pregnanolone.

UNC-49B homomer [6] = target: T1, UNC-49B homomer; details: UNC-49B homomers; Bamber et al., 2003; cited from earlier work
UNC-49B/C heteromer [7] = target: T2, UNC-49B/C heteromer; details: UNC-49B/C heteromers; Bamber et al., 2003; cited from earlier work
[8] = target: T4, UNC-49B homomer (GABA receptor); assay: Pentobarbital enhancement of UNC-49B homomer (FIG. 14B, allosteric regulation of UNC-49); assay type: cell-based
Experimental: as §2, §1

T1 sequence (G5ECD3 entry or part of it): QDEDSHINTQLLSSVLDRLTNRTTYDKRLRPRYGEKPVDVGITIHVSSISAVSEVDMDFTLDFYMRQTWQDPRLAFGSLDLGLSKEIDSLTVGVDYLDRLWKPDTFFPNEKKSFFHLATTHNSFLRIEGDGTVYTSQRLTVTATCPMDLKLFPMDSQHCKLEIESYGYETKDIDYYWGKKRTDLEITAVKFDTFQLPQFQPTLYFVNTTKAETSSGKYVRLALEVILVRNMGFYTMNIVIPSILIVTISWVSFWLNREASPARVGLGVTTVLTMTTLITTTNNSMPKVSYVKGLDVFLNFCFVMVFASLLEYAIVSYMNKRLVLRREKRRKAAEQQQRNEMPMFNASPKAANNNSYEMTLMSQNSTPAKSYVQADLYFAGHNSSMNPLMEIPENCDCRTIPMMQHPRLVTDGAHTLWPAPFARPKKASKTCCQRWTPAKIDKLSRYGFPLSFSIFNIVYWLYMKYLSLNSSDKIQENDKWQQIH
T2 sequence (G5EE10 entry or part of it): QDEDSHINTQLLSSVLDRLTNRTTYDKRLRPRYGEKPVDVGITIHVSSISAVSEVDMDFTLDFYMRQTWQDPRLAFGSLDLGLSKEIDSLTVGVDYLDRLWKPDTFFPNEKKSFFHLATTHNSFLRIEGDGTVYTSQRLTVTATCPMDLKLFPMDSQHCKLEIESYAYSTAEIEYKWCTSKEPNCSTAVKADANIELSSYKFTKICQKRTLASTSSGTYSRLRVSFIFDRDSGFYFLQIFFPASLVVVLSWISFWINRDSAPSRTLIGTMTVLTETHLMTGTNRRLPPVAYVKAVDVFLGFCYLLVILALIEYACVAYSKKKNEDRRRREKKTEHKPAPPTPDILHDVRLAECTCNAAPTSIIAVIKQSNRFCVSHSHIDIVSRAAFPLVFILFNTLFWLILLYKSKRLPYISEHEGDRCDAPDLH
T2 sequence (G5ECD3 entry or part of it): as the sequence (G5ECD3 entry or part of it) above
T4 sequence (G5ECD3 23-506): as the sequence (G5ECD3 entry or part of it) above
Chain of QF-R (G5ECD3 23-506, stated change not applied): as the sequence (G5ECD3 entry or part of it) above
T3 sequence (G5ECD3 23-506): as the sequence (G5ECD3 entry or part of it) above
T3 sequence (G5EE10 entry or part of it): as the sequence (G5ECD3 entry or part of it) above
Chain of Y chimera (G5ECD3 23-506, stated change not applied): as the sequence (G5ECD3 entry or part of it) above

picrotoxin [listing 1 of 2 here]
picrotoxin inhibition (UNC-49B homomer [1]; UNC-49B homomers): strongly inhibits | picrotoxin sensitivity (UNC-49B homomer [1]; wild-type UNC-49B compared with QF-R subunit and Y chimera (UNC-49B curve from Bamber et al. 2003)): identical | fold difference in picrotoxin sensitivity (UNC-49B-PS7): 50 fold | picrotoxin sensitivity (Y chimera): identical | picrotoxin inhibition (UNC-49B/C heteromer [2]): only weakly inhibits | picrotoxin sensitivity (QF-R): identical

picrotoxin [listing 2 of 2 here]
IC50 [3]: 166 ± 42 µM | IC50 [4]: 0.89 ± 0.15 µM

C[C@]12CC[C@@H](O)C[C@@H]1CC[C@@H]1[C@@H]2CC[C@]2(C)[C@@H](C(=O)CO)CC[C@@H]12 [5α-3α-THDOC]
positive modulation by neurosteroid [5]: greatly-reduced positive modulation

CC(=O)[C@H]1CC[C@H]2[C@@H]3CC[C@@H]4C[C@H](O)CC[C@]4(C)[C@H]3CC[C@]12C [pregnanolone]
direct activation by pregnanolone (UNC-49B homomer [1]; UNC-49B homomer): fails to directly activate | pregnanolone modulation (UNC-49B homomer [1]; UNC-49B homomer): inhibits, rather than enhances | direct activation by pregnanolone (B-β3 chimera): directly activated | pregnanolone modulation (B-β3 chimera): enhanced | pregnanolone modulation (UNC-49B homomer [6]): inhibited | pregnanolone modulation (UNC-49B/C heteromer [7]): inhibited

CCCC(C)C1(CC)C(=O)NC(=O)NC1=O (centres unmarked) [Pentobarbital]
pentobarbital enhancement (UNC-49B homomer [1]): more strongly than UNC-49B/C heteromers

CCCC(C)C1(CC)C(=O)NC(=O)NC1=O (centres unmarked) [PB, pentobarbital]
EC50 [8]: 369 ± 23.1 µM

— US8183001B2 (priority 2006, dated 2012)
